Reference: publication PMC8068801, “Novel Benzenesulfonate Scaffolds with a High Anticancer Activity and G2/M Cell Cycle Arrest” (Cancers, 2021)

Experiments:
Type in all cases: cell-based, human
K562 cells [1] = experiment: Immunoblotting with densitometry, K562; conditions: 24 h; for PARP/Reference 89 kDa, densitometric intensity ratio / caspase-9/Reference 37-35 kDa, densitometric intensity ratio: control 0.167; for AIF/Reference 67 kDa, densitometric intensity ratio / BID/Reference 22 kDa, densitometric intensity ratio / PARP/Reference 116 kDa, densitometric intensity ratio / caspase-9/Reference 47 kDa, densitometric intensity ratio / cdc2/Reference 34 kDa, densitometric intensity ratio / cyclin E1/Reference 48 kDa, densitometric intensity ratio: control 1.000
Procedure: The K562 and U-251 cells were seeded in 3 cm Petri dishes (Nunc) at a density of 500,000 cells per well and incubated overnight. […] Next, the cell pellets were resuspended in an RIPA buffer containing a Halt Protease Inhibitor Cocktail and a Halt Phosphatase Inhibitor Cocktail along with 0.5 M EDTA (all from Thermo Scientific, Waltham, MA, USA) and lysed on ice for 20 min. Then, the obtained lysates were sonicated and centrifuged at 10,000 rpm for 10 min at 4 °C. The supernatants were collected for further analysis. The protein concentration was measured using a Micro BCA™ Protein Assay Kit (Thermo Scientific) according to the manufacturer’s instructions. Equal amounts of the proteins (16 μg) were electrophoresed on SDS-Page gels and transferred onto nitrocellulose membranes. The membranes were blocked in 5% non-fat milk prepared in TPBS (PBS containing 0.1% Tween-20) for 1 h. After blocking, the membranes were incubated with the specific primary antibodies (all from Cell Signaling) at a 1:1000 dilution—cyclin E, cdc2, PARP, AIF, BID, p53, p21^Waf1/Cip1, HIF-1α, cathepsin B and caspase-9—and at a 1:2000 dilution for the reference proteins—vinculin, β-actin and GAPDH—overnight at 4 °C. The next day, the membranes were washed in TPBS and incubated with horseradish peroxidase (HRP)-conjugated secondary antibodies for 1 h at room temperature. Lastly, the membranes were washed in TPBS and incubated with a SuperSignal™ West Pico Chemiluminescent Substrate (Thermo Scientific). The chemiluminescence signals were captured using a ChemiDoc™ XRS + System (Biorad). The experiments were performed at least four to five times. The densitometric analysis was conducted using ImageJ software (Wayne Rasband, National Institutes of Health, Bethesda, MD, USA).
The band intensity of tested proteins (p53, cyclin E1, cdc2, p21, HIF-1α, cathepsin b, PARP, caspase-9, BID, AIF) were analyzed by densitometry readings/intensity ratio, using ImageJ software (NIH) and were normalized to the corresponding reference proteins (GAPDH, vinculin or β-actin) value.
The densitometric readings/intensity ratio data from four/five independent experiments (compared to control): […]
p53/ Refer- p21/ Refer- cdc2/ Refer- Cyclin E1/ HIF-1α/ Cathepsin b/Reference ence ence ence Reference Reference
PARP/Reference BID/ Reference Caspase-9/Reference […]
cdc2/ Reference cyclin E1/ Reference AIF/ Reference BID/ Reference

U-251 cells [2] = experiment: qRT-PCR mRNA expression, U-251; conditions: for Increase in the GADD45α mRNA expression / p62 mRNA expression: 24 h; for LC3 mRNA expression: U-251, 24 h
Procedure: The total RNA was isolated from the K562 and U-251 cells using the TRIzol Reagent procedure (Ambion, Austin, TX, USA). Reverse transcription was performed with 5 μg of total RNA using a GoScript™ Reverse Transcriptase kit (Promega) and Oligo(dT)23 Primers (Sigma). Real-time PCR was performed using a CTX96 Touch™ Real-Time PCR Detection System (Biorad, Hercules, CA, USA) in a 20 μL reaction volume. The reaction consisted of SsoAdvanced™ Universal SYBR® Green Supermix (Biorad), a specific primer pair mix (0.5 μM each) and 1 μL of cDNA. The reaction was performed under the following conditions: initial denaturation at 95 °C for 30 s; followed by 40 denaturation cycles at 95 °C, 15 s; annealing (primer-specific temperature for 30 s) and extension at 72 °C for 60 s. The obtained results were analyzed based on a comparison of the expression of the target genes to the reference gene, GAPDH, using the 2^−ΔΔCT method. The experiments were performed at least four times.

K562 cells [3] = experiment: Annexin V binding (apoptosis) assay, K562; conditions: K562, 5 µM, 48 h; 5.56% in the control cells
Procedure: (§1) The K562, U-251 and NHDF cells were seeded in 3 cm Petri dishes (Nunc) at a density of 250,000 cells per well and incubated at 37 °C for 24 h. Then, the medium was removed, and freshly prepared solutions of the tested compounds, BS1 and BS4 (two to three times the IC50 value), were added. After a 48 h incubation, the assays were performed using a FITC Annexin V Apoptosis Detection KIT with 7-AAD (Bio-Legend) according to the manufacturer’s instructions. Briefly, the cells were collected, washed twice with cold PBS and centrifuged at 300 g for 5 min. Next, the cells were resuspended in a 100 µL Annexin V Binding Buffer and incubated for 15 min at room temperature in the dark with 5 µL of FITC Annexin V and 5 µL 7-AAD Viability Staining Solution. After immunostaining, the number of events for live, early and late apoptotic cells were determined using a Muse Cell Analyzer. The experiments were performed at least four times.

K562 cells [4] = experiment: Autophagy assay (Muse LC3-antibody kit), K562; conditions: K562, 0.5 μM, vs control
Procedure: (§2) The K562 and U-251 cells were seeded in 96-well plates (Nunc) and incubated at 37 °C for 24 h. The density of the cells was 20,000 cells per well (for the 24 h assay) and 10,000 per well (for the 48 h assay). […] After treatment, the assays were performed using a Muse™ Autophagy LC3-antibody based kit (Millipore) according to the manufacturer’s instructions. Briefly, the cells were collected, washed with cold HPBS and centrifuged at 300 g for 5 min. […] The samples were incubated on ice for 30 min in the dark. After incubation, the cells were centrifuged and resuspended in 200 μL of a 1X Assay Buffer. Then, the samples were directly processed to analyze the autophagy induction using a Muse Cell Analyzer. The autophagy induction ratio was calculated on the basis of the ratio between the target sample fluorescence versus the control sample. The experiments were performed at least three times.

U-251 cells [5] = experiment: Annexin V binding (apoptosis) assay, U-251; conditions: U-251, 6 μM, 48 h
Procedure: as §1

U-251 cells [6] = experiment: Autophagy assay (Muse LC3-antibody kit), U-251; conditions: U-251, 4 μM, 24 h; vs control
Procedure: as §2

SMILES	PARP/Reference 89 kDa, densitometric intensity ratio (K562 cells [1]; K562, 0.35µM)	caspase-9/Reference 37-35 kDa, densitometric intensity ratio (K562 cells [1]; K562, 0.35µM)	AIF/Reference 67 kDa, densitometric intensity ratio (K562 cells [1]; K562, 0.35µM)	BID/Reference 22 kDa, densitometric intensity ratio (K562 cells [1]; K562, 0.35µM)	PARP/Reference 116 kDa, densitometric intensity ratio (K562 cells [1]; K562, 0.35µM)	caspase-9/Reference 47 kDa, densitometric intensity ratio (K562 cells [1]; K562, 0.35µM)	cdc2/Reference 34 kDa, densitometric intensity ratio (K562 cells [1]; K562, 0.35µM)	cyclin E1/Reference 48 kDa, densitometric intensity ratio (K562 cells [1]; K562, 0.35µM)	PARP/Reference 89 kDa, densitometric intensity ratio (K562 cells [1]; K562, 0.5µM)	caspase-9/Reference 37-35 kDa, densitometric intensity ratio (K562 cells [1]; K562, 0.5µM)	AIF/Reference 67 kDa, densitometric intensity ratio (K562 cells [1]; K562, 0.5µM)	BID/Reference 22 kDa, densitometric intensity ratio (K562 cells [1]; K562, 0.5µM)	PARP/Reference 116 kDa, densitometric intensity ratio (K562 cells [1]; K562, 0.5µM)	caspase-9/Reference 47 kDa, densitometric intensity ratio (K562 cells [1]; K562, 0.5µM)	cdc2/Reference 34 kDa, densitometric intensity ratio (K562 cells [1]; K562, 0.5µM)	cyclin E1/Reference 48 kDa, densitometric intensity ratio (K562 cells [1]; K562, 0.5µM)	Increase in the GADD45α mRNA expression (U-251 cells [2]; U-251, 4 µM) [fold]	LC3 mRNA expression (U-251 cells [2])	Total (early and late) apoptotic cells (K562 cells [3]) [%]	also measured
COc1ccccc1/C=C/c1nc(OS(=O)(=O)c2ccc3c(c2)OCO3)c2ccccc2n1 [BS1, 2-((E)-2-(2-methoxyphenyl)ethenyl)quinazolin-4-yl 1,3-benzodioxole-5-sulfonate]	2.111	1.287	3.809	1.049	1.793	1.109	1.234	1.273	2.156	1.368	2.737	0.695	1.646	1.627	1.122	1.110	~1.5	more than two-fold increase	31.99	Cleavage caspase-9 proteins (Western blot) (K562 cells [1]; K562, 0.35 µM): more than six-fold increase; p62 mRNA expression (U-251 cells [2]; U-251, 4 µM): almost four-fold increase; Autophagy induction ratio (K562 cells [4]; 24 h): 2.26; Autophagy induction ratio (K562 cells [4]; 48 h): 1.96; Early apoptotic cells, mean ± SD (U-251 cells [5]): 39.80%; Late apoptotic cells, mean ± SD (U-251 cells [5]): 11.40%
COc1ccccc1/C=C/c1nc(OS(=O)(=O)c2cc3c(cc2Br)OCO3)c2ccccc2n1 [BS2, 2-((E)-2-(2-methoxyphenyl)ethenyl)quinazolin-4-yl 6-bromo-1,3-benzodioxole-5-sulfonate]	0.494	1.268	4.141	0.965	1.556	1.108	1.338	1.640	0.811	1.113	4.160	0.762	1.665	1.104	1.206	1.270	–	–	–	–
COc1ccccc1/C=C/c1nc(OS(=O)(=O)c2ccc(C)cc2)c2ccccc2n1 [BS4, 2-((E)-2-(2-methoxyphenyl)ethenyl)quinazolin-4-yl 4-methylbenzenesulfonate]	–	–	–	–	–	–	–	–	–	–	–	–	–	–	–	–	~1.5	more than two-fold increase	26.51	p62 mRNA expression (U-251 cells [2]; U-251, 6 μM): almost four-fold increase; Autophagy induction ratio (U-251 cells [6]): 5.03
